Test results from PubChem BioAssay AID1259411 (Chemical Carcinogenesis Research Information System (CCRIS), 2018).
Activity calls are given as the source filed them. No rule for the calls is given here.

System: rodent carcinogenicity bioassays, tumor incidence
Test: CCRIS carcinogenicity studies
Summary of the method: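 Archive of carcinogenicity, mutagenicity, tumor promotion and tumor inhibition results drawn from journals, NCI reports and other sources, expert-reviewed; covers 1985-2011 and is no longer updated.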

CC(CCl)OC(C)CCl (stereo not drawn)
carcinogen call (Species: MOUSE, Strain/Sex: B6C3F1/FEMALE, Route: GAVAGE, Dose: 0, 100, 200 MG/KG IN CORN OIL 5/WK FOR 103 WK, Dose: 0, 100, 200 MG/KG IN CORN OIL 5/WK FOR 103 WK, Tumor Site: Type of Lesion: LUNG: ALVEOLAR/BRONCHIOLAR ADENOMA, CARCINOMA): active; positive
carcinogen call (Species: MOUSE, Strain/Sex: B6C3F1/MALE, Route: GAVAGE, Dose: 0, 100, 200 MG/KG IN CORN OIL 5/WK FOR 103 WK, Dose: 0, 100, 200 MG/KG IN CORN OIL 5/WK FOR 103 WK, Tumor Site: Type of Lesion: LUNG: ALVEOLAR/BRONCHIOLAR ADENOMA, CARCINOMA, LIVER: HEPATOCELLULAR ADENOMA, CARCINOMA): active; positive
carcinogen call (Species: RAT, Strain/Sex: F344/FEMALE, Route: GAVAGE, Dose: 0, 100, 200 MG/KG IN CORN OIL, Dose: 0, 100, 200 MG/KG IN CORN OIL): inactive; negative
carcinogen call (Species: RAT, Strain/Sex: F344/MALE, Route: GAVAGE, Dose: 0, 100, 200 MG/KG IN CORN OIL, Dose: 0, 100, 200 MG/KG IN CORN OIL): inactive; negative

O=[N+]([O-])c1ccc2ccc3c4ccccc4cc4ccc1c2c43
carcinogen call (Species: MOUSE, Strain/Sex: B6C3F1/MALE, Route: INTRAPERITONEAL, Dose: 0, 400 NMOL IN 35 µL DMSO ON DAYS 1 (1/7 TOTAL DOSE), 8 (2/7 TOTAL DOSE), AND 15 (4/7 TOTAL DOSE) AFTER BIRTH (STUDY DUR): inactive; negative
carcinogen call (Species: RAT, Strain/Sex: F344/MALE, Route: SUBCUTANEOUS, Dose: 0, 500, 1000 UG SUSPENDED IN BEESWAX/TRICAPRYLIN (1:1) ONCE (STUDY DURATION: LIFETIME), Dose: 0, 500, 1000 UG SUSPENDED IN BEESWAX/TRICAPRYLIN (1:1) ONCE (STUDY DURATION: LIFETIME)): inactive; negative

NC(N)=NC(N)=NCCc1ccccc1
carcinogen call (Species: MOUSE, Strain/Sex: B6C3F1/FEMALE, Route: ORAL, Dose: 0, 1200, 2500 PPM IN DIET, Dose: 0, 1200, 2500 PPM IN DIET): inactive; negative
carcinogen call (Species: MOUSE, Strain/Sex: B6C3F1/MALE, Route: ORAL, Dose: 0, 1200, 2500 PPM IN DIET, Dose: 0, 1200, 2500 PPM IN DIET): inactive; negative
carcinogen call (Species: RAT, Strain/Sex: F344/FEMALE, Route: ORAL, Dose: 0, 15000, 30000 PPM IN DIET, Dose: 0, 15000, 30000 PPM IN DIET): inactive; negative
carcinogen call (Species: RAT, Strain/Sex: F344/MALE, Route: ORAL, Dose: 0, 15000, 30000 PPM IN DIET, Dose: 0, 15000, 30000 PPM IN DIET): inactive; negative

CN(C)/N=N/c1nc[nH]c1C(N)=O
carcinogen call (Species: RAT, Strain/Sex: BUFFALO/FEMALE, Route: ORAL, Dose: 0, 500, MG/KG IN DIET FOR 11 WK, Dose: 0, 500, MG/KG IN DIET FOR 11 WK, Tumor Site: Type of Lesion: MAMMARY GLAND: ADENOCARCINOMA, THYMUS GLAND: LYMPHOSARCOMA): active; positive
carcinogen call (Species: RAT, Strain/Sex: SPRAGUE-DAWLEY/FEMALE, Route: INTRAPERITONEAL, Dose: 0, 100, 250, 400 MG/RAT IN CITRATE-MANNITOL SOLN, Dose: 0, 100, 250, 400 MG/RAT IN CITRATE-MANNITOL SOLN, Tumor Site: Type of Lesion: MAMMARY GLAND: ADENOCARCINOMA): active; positive
carcinogen call (Species: RAT, Strain/Sex: SPRAGUE-DAWLEY/FEMALE, Route: ORAL, Dose: 346, 574, 740 MG/KG (TOTAL DOSE), Dose: 346, 574, 740 MG/KG (TOTAL DOSE), Tumor Site: Type of Lesion: MAMMARY GLAND: ADENOCARCINOMA, CARCINOMA, ADENOFIBROMA, THYMUS GLAND: LYMPHOSARCOMA, SPLEEN: LYMPHOSARCOMA, BRAIN: EPEND, Tumor Site: Type of Lesion: MAMMARY GLAND: ADENOCARCINOMA, CARCINOMA, ADENOFIBROMA, THYMUS GLAND: LYMPHOSARCOMA, SPLEEN: LYMPHOSARCOMA, BRAIN: EPEND): active; positive
carcinogen call (Species: RAT, Strain/Sex: SPRAGUE-DAWLEY/MALE, Route: ORAL, Dose: 608, 974 MG/KG (TOTAL DOSE), Tumor Site: Type of Lesion: MAMMARY GLAND: ADENOCARCINOMA, THYMUS GLAND: LYMPHOSARCOMA, SPLEEN: LYMPHOSARCOMA, Tumor Site: Type of Lesion: MAMMARY GLAND: ADENOCARCINOMA, THYMUS GLAND: LYMPHOSARCOMA, SPLEEN: LYMPHOSARCOMA): active; positive

CCOC(=O)Nc1cccc(OC(=O)Nc2ccccc2)c1
carcinogen call (Species: Mouse, Strain/Sex: NMRI/Female (50/Group), Route: Oral, Dose: 0, 30, 150, 750 ppm in diet for 104 wk, Dose: 0, 30, 150, 750 ppm in diet for 104 wk): inactive; negative
carcinogen call (Species: Mouse, Strain/Sex: NMRI/Male (50/Group), Route: Oral, Dose: 0, 30, 150, 750 ppm in diet for 104 wk, Dose: 0, 30, 150, 750 ppm in diet for 104 wk): inactive; negative
carcinogen call (Species: Rat, Strain/Sex: Wistar KFM-Han/Female (50/Group), Route: Oral, Dose: 0, 60, 300, 1500 ppm in diet for 2 yr, Dose: 0, 60, 300, 1500 ppm in diet for 2 yr): inactive; negative
carcinogen call (Species: Rat, Strain/Sex: Wistar KFM-Han/Male (50/Group), Route: Oral, Dose: 0, 60, 300, 1500 ppm in diet for 2 yr, Dose: 0, 60, 300, 1500 ppm in diet for 2 yr): inactive; negative

Clc1cc(Cl)c(-c2cc(Cl)c(Cl)cc2Cl)cc1Cl
carcinogen call (Species: RAT, Strain/Sex: SPRAGUE-DAWLEY/FEMALE, Route: ORAL, Dose: 0, 10, 100, 300, 1000, 3000 NG/KG/D (STUDY DURATION: 2 YRS), Dose: 0, 10, 100, 300, 1000, 3000 NG/KG/D (STUDY DURATION: 2 YRS)): inactive; negative
carcinogen call (Species: Rat, Strain/Sex: Harlan Sprague-Dawley/Female, Route: Gavage, Dose: 0, 3000 ug/kg in corn oil:acetone (99:1) 5 d/wk for 30 wk then vehicle for remainder of 2 yr study, Tumor Site: Type of Lesion: Liver: Cholangioma (0/53, 2/50)): equivocal
carcinogen call (Species: Rat, Strain/Sex: Harlan Sprague-Dawley/Female, Route: Gavage, Dose: 0, 10, 100, 300, 1000, 3000 ug/kg in corn oil:acetone (99:1) 5 d/wk for 2 yr, Dose: 0, 10, 100, 300, 1000, 3000 ug/kg in corn oil:acetone (99:1) 5 d/wk for 2 yr; Tumor Site: Type of Lesion: Liver: Cholangioma 0/53, 0/54, 0/53, 0/53, 2/53, 0/51)): equivocal

CC1(C)C(C(=O)OC(C#N)c2cccc(Oc3ccccc3)c2)C1(C)C (stereo not drawn)
carcinogen call (Species: Mouse, Strain/Sex: CD-1/Female (52/Group), Dose: 0, 40, 150, 600 ppm of 91.4 - 92.5 % fenpropathrin in diet for 2 yr, study duration 2 yr, Dose: 0, 40, 150, 600 ppm of 91.4 - 92.5 % fenpropathrin in diet for 2 yr, study duration 2 yr): inactive; negative
carcinogen call (Species: Mouse, Strain/Sex: CD-1/Male (52/Group), Dose: 0, 40, 150, 600 ppm of 91.4 - 92.5 % fenpropathrin in diet for 2 yr, study duration 2 yr, Dose: 0, 40, 150, 600 ppm of 91.4 - 92.5 % fenpropathrin in diet for 2 yr, study duration 2 yr): inactive; negative
carcinogen call (Species: Rat, Strain/Sex: CD/Female (50/Group), Route: Oral, Dose: 0, 50, 150, 450 ppm of 91.4-92.5% fenpropathrin in diet for >52 wk, study duration up to 2 yr, Dose: 0, 50, 150, 450 ppm of 91.4-92.5% fenpropathrin in diet for >52 wk, study duration up to 2 yr): inactive; negative
carcinogen call (Species: Rat, Strain/Sex: CD/Male (50/Group), Route: Oral, Dose: 0, 50, 150, 450 ppm of 91.4-92.5% fenpropathrin in diet for >52 wk, study duration up to 2 yr, Dose: 0, 50, 150, 450 ppm of 91.4-92.5% fenpropathrin in diet for >52 wk, study duration up to 2 yr): inactive; negative

CC(=O)OC/C=C(\C)CCC=C(C)C
carcinogen call (Species: MOUSE, Strain/Sex: B6C3F1/MALE, Route: GAVAGE, Dose: 0, 500 MG/KG OF FOOD GRADE (29% CITRONELLYL ACETATE) IN CORN OIL 5D/WK FOR 102 WK (STUDY DURATION: 104 WK)): inactive; negative
carcinogen call (Species: RAT, Strain/Sex: F344/FEMALE, Route: GAVAGE, Dose: 0, 1000, 2000 MG/KG OF FOOD GRADE (29% CITRONELLYL ACETATE) IN CORN OIL 5D/WK FOR 103 WK (STUDY DURATION: 104 WK), Dose: 0, 1000, 2000 MG/KG OF FOOD GRADE (29% CITRONELLYL ACETATE) IN CORN OIL 5D/WK FOR 103 WK (STUDY DURATION: 104 WK)): inactive; negative
carcinogen call (Species: RAT, Strain/Sex: F344/MALE, Route: GAVAGE, Dose: 0, 1000 MG/KG OF FOOD GRADE (29% CITRONELLYL ACETATE) IN CORN OIL 5D/WK FOR 103 WK (STUDY DURATION: 104 WK)): inactive; negative
